{
  "source": "paper PMC11897554",
  "about": "“Pharmacokinetic effect of disease severity and use of extracorporeal membrane oxygenation in critically ill Asian patients receiving vancomycin” (Frontiers in Pharmacology, 2025)",
  "key": {"[1]": {"assay": "Population pharmacokinetic analysis (nonlinear mixed-effects, one-compartment) of vancomycin therapeutic drug monitoring data in critically ill patients", "text": "This retrospective study used medical records of critically ill patients hospitalized in Kaohsiung Veterans General Hospital, Taiwan, from 1 January 2014, to 31 December 2016. The study was approved by the Kaohsiung Veteran General Hospital Institutional Review Board (certificate number VGHKS18-CT9-12). A waiver of informed consent was granted as the data were collected retrospectively from medical records. The identity of the study subjects was masked through the use of a study identifier. Data were de-identified. […] Patients were excluded if vancomycin concentrations in blood could not be detected or if there were incomplete data on the vancomycin regimen. As per the study protocol the blood samples were collected >1 h after the end of dose administration (peak concentration) and within 30 min before the next dose (trough concentration). Trough and peak concentrations obtained after administering at least four equal repeated doses were referred to as the steady-state concentrations.\nData abstracted included height, weight, age, principal diagnosis at admission, whether an open-heart surgery had been performed, serum creatinine concentrations, whether extracorporeal membrane oxygenation (ECMO), and vancomycin dosage, frequency, route, speed, and administration time indications for the use of vancomycin. The estimated glomerular filtration rate (eGFR) was calculated using the bedside Schwartz equation from serum creatinine values ([Schwartz et al., 2009]). There were nine distinct diagnostic categories at admission. To improve simplicity and interpretability, diagnoses were grouped into two major categories based on clinical differences, depending on the severity of the bacterial infection for which vancomycin was used. The first category (severe infections) corresponded to people diagnosed with pneumonia/bacteremia/osteomyelitis/meningitis/deep tissue infection, and the second category (mild infections) included people diagnosed with cellulitis/surgical prevention/neutropenic fever/others.\nVancomycin plasma concentrations were transformed into their natural logarithms. The corresponding concentration versus time plot was placed on a logarithmic scale for all the subjects to address normality. The concentration-time profiles were characterized using nonlinear mixed-effects modeling using Phoenix NLME (Certara Inc. version 8.2). Concentrations below the lower limit of detection (LLOD) were excluded from the analysis. Concentrations below the lower limit of quantitation (LLOQ) were divided by two to obtain an unbiased conservative estimate of the true concentration. One- and two-compartment models with first-order elimination with additive, proportional, and combined error models were considered for the base model. The between-subject variability was normally distributed with a mean equal to 0 and variance equal to ω^2. The allometric scaling exponent for clearance and volume of distribution were fixed at 0.75 and 1, respectively ([Holford, 1996]; [Chung et al., 2021]). The models were run with the FOCE-ELS algorithm and simple run mode. […] Weight was applied a priori to the base model. A sensitivity analysis was performed after the final structural model selection, and the initial estimates were changed to evaluate the robustness of the model.\nThe clinically relevant categorical covariates that were investigated included the major diagnosis category/infection severity, extracorporeal membrane oxygenation (ECMO) status, and surgery status. Covariate investigation was conducted in stepwise covariate search run mode in Phoenix (Phoenix®, version 8.2, Certara, Princeton, NJ) using stepwise forward inclusion followed by stepwise backward elimination. The models were assessed by a reduction or increase in the objective function value (OFV), equal to −2*log likelihood. During forward selection, any covariate that reduced the OFV by > 3.84 [p < 0.05, χ2 distribution with 1 degree of freedom (df)] was significant."}, "[2]": {"settings": "ref Chung et al., 2021, Matusik et al., 2022, cited from earlier work", "description": "In pediatric patients, vancomycin pharmacokinetics can be highly variable due to age-related differences in drug absorption, distribution, metabolism, and elimination. Population pharmacokinetic models provide quantitative and semi-quantitative frameworks for optimizing dosing regimens. They achieve this by identifying sources of variability, by determining factors that influence the pharmacokinetic behavior of the drug, and quantifying the magnitude of unexplained variability ([Stockmann et al., 2013])."}, "[3]": {"settings": "within 24 h; ref Shimamoto et al., 2021; Le et al., 2013; cited from earlier work"}, "[4]": {"settings": "calculated from final model, median weight, ηCl = 0"}, "[5]": {"settings": "non-parametric bootstrap of final model, 1,000 datasets"}, "[6]": {"settings": "non-parametric bootstrap, 1,000 datasets"}},
  "data": [
    {"smiles": "CN[C@H](CC(C)C)C(=O)N[C@H]1C(=O)N[C@@H](CC(N)=O)C(=O)N[C@H]2C(=O)N[C@H]3C(=O)N[C@H](C(=O)N[C@H](C(=O)O)c4cc(O)cc(O)c4-c4cc3ccc4O)[C@H](O)c3ccc(c(Cl)c3)Oc3cc2cc(c3O[C@@H]2O[C@H](CO)[C@@H](O)[C@H](O)[C@H]2O[C@H]2C[C@](C)(N)[C@H](O)[C@H](C)O2)Oc2ccc(cc2Cl)[C@H]1O", "note": "[vancomycin]", "values": [
      {"measurement": "Clearance value, patients with severe infections", "setting": "[1]; DIAG = 0 (pneumonia/bacteremia/osteomyelitis/meningitis/deep tissue infection), calculated from final model, median weight (12.6 kg), ηCl = 0", "value": 1.03, "unit": "L/h"},
      {"measurement": "Clearance value, patients with mild infections", "setting": "[1]; DIAG = 1 (cellulitis/surgical prevention/neutropenic fever/others), calculated from final model, median weight (12.6 kg), ηCl = 0", "value": 0.63, "unit": "L/h"},
      {"measurement": "Clearance value, patients without ECMO", "setting": "[1]; ECMO = 0, calculated from final model for an individual of median weight (12.6 kg), ηCl = 0", "value": 1.03, "unit": "L/h"},
      {"measurement": "% difference (reduction) in clearance, ECMO versus non-ECMO patients", "setting": "[1]; [4]", "value": "∼56%"},
      {"measurement": "% difference (reduction) in clearance, mild versus severe infections", "setting": "[1]; [4]", "value": "∼39%"},
      {"measurement": "tvCL, bootstrap median", "setting": "[1]; [5]", "value": 1.01, "unit": "L/h"},
      {"measurement": "tvV, bootstrap median", "setting": "[1]; [5]", "value": 11.85, "unit": "L"},
      {"measurement": "dCldDiag, bootstrap median", "setting": "[1]; [6]", "value": "−0.48"},
      {"measurement": "dCldECMO, bootstrap median", "setting": "[1]; [6]", "value": "−0.79"},
      {"measurement": "tvV, typical value of volume of distribution, final model estimate", "setting": "[1]; one-compartment model, first-order elimination, proportional error, Phoenix NLME FOCE-ELS, IV infusion, 90 critically ill Asian patients, 263 samples, typical individual 12.6 kg, allometric exponent 1 fixed", "value": 11.61, "unit": "L"},
      {"measurement": "half-life, HDF", "setting": "[2]; dialysis mode hemodiafiltration", "value": 2.1, "unit": "h"},
      {"measurement": "half-life, HD", "setting": "[2]; dialysis mode hemodialysis", "value": 3.5, "unit": "h"},
      {"measurement": "administered dose excreted unchanged", "setting": "[3]", "value": "approximately 90%"}
    ]}
  ]
}
